Data: ChEMBL document CHEMBL5634167, “Insights into the structure-activity relationship of the anticancer compound ZJ-101: A role played by the amide moiety” (Bioorg Med Chem Lett, 2024)

Key:
Type in all cases: functional, cell-based
MDA-MB-231 = assay: Antiproliferative activity against human MDA-MB-231 cells assessed inhibition of cell growth incubated for 72 hrs by alamar blue assay; settings: MDA-MB-231, 72 h
HCT-116 = assay: Antiproliferative activity against human HCT-116 cells assessed inhibition of cell growth incubated for 72 hrs by alamar blue assay; settings: HCT-116, 72 h
MCF7 = assay: Antiproliferative activity against human MCF7 cells assessed inhibition of cell growth incubated for 72 hrs by alamar blue assay; settings: MCF7, 72 h

Row | IC50 (MDA-MB-231) | IC50 (HCT-116) | IC50 (MCF7) | Compound
1 | 1010 nM | 3360 nM | 1120 nM | CC1=C/C=C/C(=O)O[C@@H]([C@H](C)[C@H](O)[C@@H](C)NS(C)(=O)=O)[C@H](C)/C=C/C(C)=C/[C@H]2C=CCC[C@@]2(C)\C=C\1
2 | 64 nM | 47.5 nM | 41.4 nM | CC1=C/C=C/C(=O)O[C@@H]([C@H](C)[C@H](O)[C@@H](C)NC(=O)C(C)C)[C@H](C)/C=C/C(C)=C/[C@H]2C=CCC[C@@]2(C)\C=C\1
3 | 104 nM | 136 nM | 88.5 nM | CNC(=O)N[C@H](C)[C@@H](O)[C@@H](C)[C@@H]1OC(=O)/C=C/C=C(C)\C=C\[C@]2(C)CCC=C[C@@H]2/C=C(C)/C=C/[C@H]1C
4 | > 2000 nM | > 5000 nM | > 2000 nM | COC(=O)N[C@H](C)[C@@H](O)[C@@H](C)[C@@H]1OC(=O)/C=C/C=C(C)\C=C\[C@]2(C)CCC=C[C@@H]2/C=C(C)/C=C/[C@H]1C

Row | Compound | IC50 (MDA-MB-231) | IC50 (HCT-116) | IC50 (MCF7)
5 | CC(=O)N[C@H](C)[C@@H](O)[C@@H](C)[C@@H]1OC(=O)/C=C/C=C(C)\C=C\[C@]2(C)CCC=C[C@@H]2/C=C(C)/C=C/[C@H]1C | – | 88.2 nM | –
